{"source": "ChEMBL document CHEMBL1153372", "about": "“A selective matrix metalloprotease 12 inhibitor for potential treatment of chronic obstructive pulmonary disease (COPD): discovery of (S)-2-(8-(methoxycarbonylamino)dibenzo[b,d]furan-3-sulfonamido)-3-methylbutanoic acid (MMP408)” (J Med Chem, 2009)", "key": {"[1]": {"test": "Cmax in C57BL/6 mouse at 30 mg/kg, po", "assay_type": "ADME, organism-based", "set-up": "dose 30 mg/kg, route oral", "conditions": "in vivo; call rule not given here"}, "[2]": {"test": "AUC in C57BL/6 mouse at 30 mg/kg, po", "assay_type": "ADME, organism-based", "set-up": "dose 30 mg/kg, route oral", "conditions": "plasma"}, "[3]": {"test": "Oral bioavailability in C57BL/6 mouse at 30 mg/kg", "assay_type": "ADME, organism-based", "conditions": "in vivo"}, "Stromelysin-1": {"target": "Stromelysin-1 (Homo sapiens, UniProt P08254)", "sequence (P08254 whole entry)": "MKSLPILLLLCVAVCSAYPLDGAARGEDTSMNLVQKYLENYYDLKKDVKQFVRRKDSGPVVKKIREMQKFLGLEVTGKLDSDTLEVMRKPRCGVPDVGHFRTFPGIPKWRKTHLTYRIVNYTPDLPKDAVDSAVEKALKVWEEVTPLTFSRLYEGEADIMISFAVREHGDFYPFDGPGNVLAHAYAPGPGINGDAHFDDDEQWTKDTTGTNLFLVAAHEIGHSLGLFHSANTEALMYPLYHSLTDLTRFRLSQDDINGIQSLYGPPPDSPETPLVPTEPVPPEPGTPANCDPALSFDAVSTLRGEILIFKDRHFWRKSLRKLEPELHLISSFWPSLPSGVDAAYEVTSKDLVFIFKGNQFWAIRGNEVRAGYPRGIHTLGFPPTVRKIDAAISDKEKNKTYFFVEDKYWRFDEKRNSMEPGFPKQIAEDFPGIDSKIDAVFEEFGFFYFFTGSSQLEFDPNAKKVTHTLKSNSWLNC", "test": "Inhibition of human MMP3"}, "Matrilysin": {"target": "T1, Matrilysin (Homo sapiens, UniProt P09237)", "T1 sequence (P09237 whole entry)": "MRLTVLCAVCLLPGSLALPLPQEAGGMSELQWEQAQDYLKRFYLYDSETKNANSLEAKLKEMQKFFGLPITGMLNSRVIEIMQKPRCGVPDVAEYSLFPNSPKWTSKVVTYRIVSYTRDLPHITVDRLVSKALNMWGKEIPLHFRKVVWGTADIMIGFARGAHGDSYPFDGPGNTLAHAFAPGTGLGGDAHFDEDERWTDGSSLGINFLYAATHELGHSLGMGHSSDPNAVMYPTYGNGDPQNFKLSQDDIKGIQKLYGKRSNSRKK", "test": "Inhibition of human MMP7"}, "[4]": {"target": "Matrix metalloproteinase-9 (Homo sapiens, UniProt P14780)", "sequence (P14780 whole entry)": "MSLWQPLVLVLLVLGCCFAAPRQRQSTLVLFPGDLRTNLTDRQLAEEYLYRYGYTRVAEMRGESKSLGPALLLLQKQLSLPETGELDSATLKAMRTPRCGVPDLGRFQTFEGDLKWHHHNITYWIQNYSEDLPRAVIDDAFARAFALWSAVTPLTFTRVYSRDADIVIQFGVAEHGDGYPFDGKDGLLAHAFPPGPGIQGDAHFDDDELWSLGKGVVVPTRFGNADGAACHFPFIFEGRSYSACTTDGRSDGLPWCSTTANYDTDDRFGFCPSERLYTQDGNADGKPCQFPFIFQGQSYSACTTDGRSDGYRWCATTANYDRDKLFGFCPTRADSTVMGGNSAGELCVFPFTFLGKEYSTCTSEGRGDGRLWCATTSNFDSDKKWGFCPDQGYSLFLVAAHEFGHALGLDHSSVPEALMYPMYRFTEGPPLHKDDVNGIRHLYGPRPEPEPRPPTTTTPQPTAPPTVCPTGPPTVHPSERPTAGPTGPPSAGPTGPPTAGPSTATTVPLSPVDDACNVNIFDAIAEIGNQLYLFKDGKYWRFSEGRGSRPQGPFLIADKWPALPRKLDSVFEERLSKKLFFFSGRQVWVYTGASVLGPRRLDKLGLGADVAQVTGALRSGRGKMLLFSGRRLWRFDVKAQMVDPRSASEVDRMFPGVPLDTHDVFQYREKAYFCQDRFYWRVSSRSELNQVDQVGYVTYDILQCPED", "test": "Inhibition of human MMP9"}, "[5]": {"target": "T2, A disintegrin and metalloproteinase with thrombospondin motifs 4 (Homo sapiens, UniProt O75173)", "T2 sequence (O75173 whole entry)": "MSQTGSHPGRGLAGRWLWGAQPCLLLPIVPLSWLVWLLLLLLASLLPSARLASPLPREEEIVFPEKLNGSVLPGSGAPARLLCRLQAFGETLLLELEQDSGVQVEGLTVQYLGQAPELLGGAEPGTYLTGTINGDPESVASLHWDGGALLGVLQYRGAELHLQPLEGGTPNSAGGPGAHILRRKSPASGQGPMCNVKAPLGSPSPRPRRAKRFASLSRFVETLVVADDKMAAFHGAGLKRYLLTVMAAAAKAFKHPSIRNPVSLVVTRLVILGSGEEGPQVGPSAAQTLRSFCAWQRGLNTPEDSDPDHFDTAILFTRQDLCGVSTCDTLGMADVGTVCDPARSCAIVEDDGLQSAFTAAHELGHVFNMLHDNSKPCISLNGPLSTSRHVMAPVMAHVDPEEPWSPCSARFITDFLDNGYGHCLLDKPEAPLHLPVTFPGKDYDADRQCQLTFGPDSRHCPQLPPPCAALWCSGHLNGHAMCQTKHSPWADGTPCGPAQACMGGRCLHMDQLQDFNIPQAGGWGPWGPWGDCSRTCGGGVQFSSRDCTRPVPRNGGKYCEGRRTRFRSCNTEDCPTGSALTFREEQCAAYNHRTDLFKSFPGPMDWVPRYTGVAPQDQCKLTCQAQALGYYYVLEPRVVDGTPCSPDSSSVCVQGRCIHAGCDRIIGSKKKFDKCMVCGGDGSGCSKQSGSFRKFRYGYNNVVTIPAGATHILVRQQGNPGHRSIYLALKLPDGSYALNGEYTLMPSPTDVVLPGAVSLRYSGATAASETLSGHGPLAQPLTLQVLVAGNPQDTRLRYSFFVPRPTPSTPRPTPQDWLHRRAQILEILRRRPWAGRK", "test": "Inhibition of human Aggrecanase-1"}, "[6]": {"target": "T3, A disintegrin and metalloproteinase with thrombospondin motifs 5 (Homo sapiens, UniProt Q9UNA0)", "T3 sequence (Q9UNA0 whole entry)": "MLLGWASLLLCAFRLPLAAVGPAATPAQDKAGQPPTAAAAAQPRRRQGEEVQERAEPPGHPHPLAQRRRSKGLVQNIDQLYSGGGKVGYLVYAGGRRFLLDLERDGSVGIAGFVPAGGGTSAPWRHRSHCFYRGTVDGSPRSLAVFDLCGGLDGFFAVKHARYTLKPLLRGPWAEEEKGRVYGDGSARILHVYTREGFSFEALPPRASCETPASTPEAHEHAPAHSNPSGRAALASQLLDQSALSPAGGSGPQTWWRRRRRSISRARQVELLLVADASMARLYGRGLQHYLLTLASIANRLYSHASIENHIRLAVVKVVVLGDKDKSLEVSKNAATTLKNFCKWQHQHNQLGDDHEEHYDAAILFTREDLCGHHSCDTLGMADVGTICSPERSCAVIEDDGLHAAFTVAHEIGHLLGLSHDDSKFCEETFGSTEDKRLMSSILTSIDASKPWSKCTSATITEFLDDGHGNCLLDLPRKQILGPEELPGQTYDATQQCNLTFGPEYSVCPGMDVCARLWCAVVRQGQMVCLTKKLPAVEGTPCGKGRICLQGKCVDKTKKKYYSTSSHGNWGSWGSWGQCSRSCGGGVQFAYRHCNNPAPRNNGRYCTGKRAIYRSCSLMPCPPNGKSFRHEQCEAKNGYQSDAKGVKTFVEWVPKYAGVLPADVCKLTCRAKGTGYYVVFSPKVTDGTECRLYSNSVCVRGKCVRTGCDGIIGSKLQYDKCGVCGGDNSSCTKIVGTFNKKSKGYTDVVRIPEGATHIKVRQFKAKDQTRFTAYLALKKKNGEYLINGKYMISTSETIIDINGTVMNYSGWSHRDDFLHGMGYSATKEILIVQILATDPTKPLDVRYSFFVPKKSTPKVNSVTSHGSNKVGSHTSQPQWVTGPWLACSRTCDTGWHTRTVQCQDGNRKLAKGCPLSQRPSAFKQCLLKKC", "test": "Inhibition of human Aggrecanase-2"}, "[7]": {"target": "Matrix metalloproteinase-14 (Homo sapiens, UniProt P50281)", "test": "Inhibition of human MMP14"}, "[8]": {"test": "Metabolic stability in mouse liver microsomes", "assay_type": "ADME, Microsome"}, "[9]": {"test": "Metabolic stability in rat liver microsomes", "assay_type": "ADME, Microsome"}, "[10]": {"test": "Metabolic stability in dog liver microsomes", "assay_type": "ADME, Canis lupus familiaris, Microsome"}, "[11]": {"test": "Metabolic stability in monkey liver microsomes", "assay_type": "ADME, Macaca mulatta, Microsome", "conditions": "rhesus monkey"}, "[12]": {"target": "Voltage-gated inwardly rectifying potassium channel KCNH2 (Homo sapiens, UniProt Q12809)", "sequence (Q12809 whole entry)": "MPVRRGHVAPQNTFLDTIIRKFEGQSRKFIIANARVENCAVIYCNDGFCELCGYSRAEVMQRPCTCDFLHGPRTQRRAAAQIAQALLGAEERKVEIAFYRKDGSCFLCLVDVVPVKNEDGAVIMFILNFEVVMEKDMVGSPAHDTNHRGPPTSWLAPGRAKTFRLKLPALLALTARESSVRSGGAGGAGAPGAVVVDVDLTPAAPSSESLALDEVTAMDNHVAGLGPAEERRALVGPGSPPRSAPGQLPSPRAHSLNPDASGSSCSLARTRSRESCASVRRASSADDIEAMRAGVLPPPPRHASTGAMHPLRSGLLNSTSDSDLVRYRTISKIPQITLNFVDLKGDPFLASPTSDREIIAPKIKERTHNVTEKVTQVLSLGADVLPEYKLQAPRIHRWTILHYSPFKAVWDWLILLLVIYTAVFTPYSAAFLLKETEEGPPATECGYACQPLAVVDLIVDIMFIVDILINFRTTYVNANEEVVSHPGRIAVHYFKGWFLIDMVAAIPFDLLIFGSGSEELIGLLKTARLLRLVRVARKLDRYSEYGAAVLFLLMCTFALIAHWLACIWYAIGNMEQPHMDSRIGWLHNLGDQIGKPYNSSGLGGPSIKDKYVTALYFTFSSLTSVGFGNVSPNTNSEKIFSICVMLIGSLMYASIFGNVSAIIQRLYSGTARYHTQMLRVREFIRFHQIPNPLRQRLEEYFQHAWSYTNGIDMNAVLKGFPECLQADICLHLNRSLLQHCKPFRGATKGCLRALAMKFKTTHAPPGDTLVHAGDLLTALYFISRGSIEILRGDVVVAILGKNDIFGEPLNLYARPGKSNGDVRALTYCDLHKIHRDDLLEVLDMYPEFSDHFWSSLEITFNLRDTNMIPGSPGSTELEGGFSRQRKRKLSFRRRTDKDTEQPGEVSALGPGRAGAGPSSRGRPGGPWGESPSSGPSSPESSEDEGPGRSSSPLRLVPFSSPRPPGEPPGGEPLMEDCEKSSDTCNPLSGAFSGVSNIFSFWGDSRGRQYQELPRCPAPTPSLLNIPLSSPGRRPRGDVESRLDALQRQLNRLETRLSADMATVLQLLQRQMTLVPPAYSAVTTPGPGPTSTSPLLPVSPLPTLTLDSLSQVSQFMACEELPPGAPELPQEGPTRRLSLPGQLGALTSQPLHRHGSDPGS", "test": "Inhibition of human ERG channel"}, "[13]": {"test": "Metabolic stability in human liver microsomes", "assay_type": "ADME, Microsome"}, "Mus musculus [14]": {"tested_on": "Mus musculus", "test": "Inhibition of human recombinant MMP-12-induced lung inflammation in C57BL/6 mouse chronic obstructive pulmonary disease model assessed as inhibition of bronchoalveolar lavage fluid macrophage level at 30 mg/kg, po qd", "assay_type": "functional", "conditions": "C57BL/6, Lung"}, "Mus musculus [15]": {"tested_on": "Mus musculus", "test": "Inhibition of human recombinant MMP-12-induced lung inflammation in po dosed C57BL/6 mouse chronic obstructive pulmonary disease model assessed as inhibition of lung inflammation dosed twice daily", "assay_type": "functional", "conditions": "C57BL/6, po, read-out: MED"}, "Mus musculus [16]": {"tested_on": "Mus musculus", "test": "Inhibition of human recombinant MMP-12-induced lung inflammation in C57BL/6 mouse chronic obstructive pulmonary disease model assessed as inhibition of bronchoalveolar lavage fluid inflammation at 30 mg/kg, po qd", "assay_type": "functional", "conditions": "C57BL/6, Lung"}, "Interstitial collagenase": {"target": "T4, Interstitial collagenase (Homo sapiens, UniProt P03956)", "T4 sequence (P03956 whole entry)": "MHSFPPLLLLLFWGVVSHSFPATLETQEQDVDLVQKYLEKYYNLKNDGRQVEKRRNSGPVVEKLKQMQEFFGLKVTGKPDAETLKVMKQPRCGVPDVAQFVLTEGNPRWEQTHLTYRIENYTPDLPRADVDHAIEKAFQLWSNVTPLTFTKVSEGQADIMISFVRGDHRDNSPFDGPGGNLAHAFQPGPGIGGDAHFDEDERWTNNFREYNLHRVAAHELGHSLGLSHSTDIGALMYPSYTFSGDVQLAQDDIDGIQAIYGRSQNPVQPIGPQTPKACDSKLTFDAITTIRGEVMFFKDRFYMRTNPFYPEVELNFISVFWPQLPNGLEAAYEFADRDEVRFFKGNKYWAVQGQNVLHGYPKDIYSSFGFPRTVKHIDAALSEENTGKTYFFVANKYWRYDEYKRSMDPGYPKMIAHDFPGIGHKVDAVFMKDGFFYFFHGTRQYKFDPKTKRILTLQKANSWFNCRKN", "test": "Inhibition of human MMP1"}, "[17]": {"test": "Inhibition of sheep MMP12", "set-up": "species or system Ovis aries"}, "[18]": {"target": "Macrophage metalloelastase (Mus musculus, UniProt P34960)", "sequence (P34960 whole entry)": "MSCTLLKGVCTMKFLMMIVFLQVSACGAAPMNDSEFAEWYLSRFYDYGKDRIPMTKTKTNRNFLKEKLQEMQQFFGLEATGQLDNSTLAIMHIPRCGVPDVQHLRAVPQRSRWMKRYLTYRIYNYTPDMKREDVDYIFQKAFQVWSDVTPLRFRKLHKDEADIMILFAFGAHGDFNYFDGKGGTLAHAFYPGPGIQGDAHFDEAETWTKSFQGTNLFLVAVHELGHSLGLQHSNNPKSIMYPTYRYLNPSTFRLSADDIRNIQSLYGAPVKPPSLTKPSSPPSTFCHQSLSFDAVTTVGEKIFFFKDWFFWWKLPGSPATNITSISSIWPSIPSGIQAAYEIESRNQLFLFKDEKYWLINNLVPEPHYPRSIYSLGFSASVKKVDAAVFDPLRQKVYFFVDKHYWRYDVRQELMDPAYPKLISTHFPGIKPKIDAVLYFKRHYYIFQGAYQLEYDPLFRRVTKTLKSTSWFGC", "test": "Inhibition of mouse recombinant MMP12"}, "Collagenase 3": {"target": "Collagenase 3 (Homo sapiens, UniProt P45452)", "test": "Inhibition of human recombinant MMP13 expressed in Escherichia coli"}, "[19]": {"test": "Volume of distribution at steady state in C57BL/6 mouse at 2 mg/kg, iv", "assay_type": "ADME, organism-based", "set-up": "dose 2 mg/kg, route intravenous", "conditions": "in vivo, read-out: Vdss"}, "[20]": {"test": "Clearance in C57BL/6 mouse at 2 mg/kg, iv", "assay_type": "ADME, organism-based", "set-up": "dose 2 mg/kg, route intravenous", "conditions": "in vivo"}, "[21]": {"test": "Half life in C57BL/6 mouse at 30 mg/kg, po", "assay_type": "ADME, organism-based", "set-up": "dose 30 mg/kg, route oral", "conditions": "in vivo"}, "[22]": {"target": "Macrophage metalloelastase (Rattus norvegicus, UniProt Q63341)", "sequence (Q63341 whole entry)": "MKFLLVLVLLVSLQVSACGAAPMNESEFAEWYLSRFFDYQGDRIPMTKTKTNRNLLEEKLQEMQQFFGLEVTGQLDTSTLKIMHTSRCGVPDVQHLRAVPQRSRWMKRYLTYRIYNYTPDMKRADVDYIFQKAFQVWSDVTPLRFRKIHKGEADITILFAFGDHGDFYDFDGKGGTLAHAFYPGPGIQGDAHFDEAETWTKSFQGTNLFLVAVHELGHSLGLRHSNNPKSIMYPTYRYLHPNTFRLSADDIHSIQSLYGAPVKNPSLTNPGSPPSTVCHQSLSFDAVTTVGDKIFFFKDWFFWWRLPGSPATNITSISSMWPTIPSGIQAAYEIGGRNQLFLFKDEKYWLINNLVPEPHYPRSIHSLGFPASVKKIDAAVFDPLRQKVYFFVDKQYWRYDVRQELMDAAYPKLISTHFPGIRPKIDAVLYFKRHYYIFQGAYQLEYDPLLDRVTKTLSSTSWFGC"}}, "data": [{"smiles": "COC(=O)Nc1ccc2oc3cc(S(=O)(=O)N[C@H](C(=O)O)C(C)C)ccc3c2c1", "values": [{"measurement": "Cmax", "setting": "[1]", "value": 3080, "unit": "ng/mL"}, {"measurement": "AUC", "setting": "[2]", "value": 7480, "unit": "ng·h/mL"}, {"measurement": "bioavailability", "setting": "[3]", "value": 27, "unit": "%"}, {"measurement": "IC50", "setting": "Stromelysin-1", "value": 351, "unit": "nM"}, {"measurement": "IC50", "setting": "Matrilysin", "value": "> 22000", "unit": "nM"}, {"measurement": "IC50", "setting": "[4]", "value": 1300, "unit": "nM"}, {"measurement": "IC50", "setting": "[5]", "value": "> 5000", "unit": "nM"}, {"measurement": "IC50", "setting": "[6]", "value": "> 10000", "unit": "nM"}, {"measurement": "IC50", "setting": "[7]", "value": 1100, "unit": "nM"}, {"measurement": "half-life", "setting": "[8]", "value": "> 1", "unit": "h"}, {"measurement": "half-life", "setting": "[9]", "value": "> 1", "unit": "h"}, {"measurement": "half-life", "setting": "[10]", "value": "> 1", "unit": "h"}, {"measurement": "half-life", "setting": "[11]", "value": "> 1", "unit": "h"}, {"measurement": "Activity", "setting": "[12]", "value": "Not Active"}, {"measurement": "half-life", "setting": "[13]", "value": "> 1", "unit": "h"}, {"measurement": "inhibition in vivo at 30 mg/kg", "setting": "Mus musculus [14]", "value": "> 70", "unit": "%"}, {"measurement": "minimal effective dose", "setting": "Mus musculus [15]", "value": 5, "unit": "mg/kg"}, {"measurement": "inhibition in vivo at 30 mg/kg", "setting": "Mus musculus [16]", "value": "> 50", "unit": "%"}, {"measurement": "IC50", "setting": "Interstitial collagenase", "value": "> 6000", "unit": "nM"}, {"measurement": "IC50", "setting": "[17]", "value": 22.3, "unit": "nM"}, {"measurement": "IC50", "setting": "[18]", "value": 160, "unit": "nM"}, {"measurement": "IC50", "setting": "Collagenase 3", "value": 120, "unit": "nM"}, {"measurement": "Vd", "setting": "[19]", "value": 1.9, "unit": "L/kg"}, {"measurement": "clearance", "setting": "[20]", "value": 17.2, "unit": "mL/min/kg"}, {"measurement": "half-life", "setting": "[21]", "value": 3, "unit": "h"}, {"measurement": "IC50", "setting": "[22]", "value": 320, "unit": "nM"}]}]}
